Values quoted from earlier work in patent US20140080710A1, “COMPOSITIONS WITH HOT MELT RESIN MATRIX” (AgroFresh Inc., priority 2012, published 2014).

Test system: ethylene receptor
Details: compared with ethylene

CC1=CC1 [Sample 1-MCP, 1-methylcyclopropene]
affinity for the receptor relative to that of ethylene: approximately 10 times
